In patent publication US9422527B2, “Drug target site within gp120 of HIV” (priority 2011, dated 2016):
pIC50: −log10 of the molar value. Where two headings read alike, the source gives them in different places.

Experiments:
pNL-AD87 HIV-1 virus [1] = assay: microbe, parasite or virus in culture; conditions: Human immunodeficiency virus 1
Procedure: (§3) Two compounds were evaluated for their activity as inhibitor of HIV replication on three different lab strains using the deCIPhR cellular format.
(§4) Compound stocks were prepared as 1.5 mM solution in 100% DMSO and vials were agitated for two hours at 50° C. Stock solutions were kept at −20° C., light protected as aliquots. Working dilutions (1/3 log) were prepared extemporaneously by serial dilutions in H2O/DMSO (95/5). Ten μL of working dilutions were then pipetted and directly tested for anti-HIV activity in the 200 μL final volume of the deCIPhR cellular assay format, yielding final concentrations of 7'500, 3'481, 1'616, 750, 348, 162, 75, 35, 16, 8 and 3 nM.
(§5) The DNA sequence coding for Vpu, Tat, Rev, Env, and Nef from the CCR5-tropic clone AD87 (HIV strain AD8, Genbank accession number #AF004394) was introduced by PCR-cloning into the reference proviral strain pNL4-3 (Genbank accession number #AF324493), where it replaced the corresponding region. Presence of insert was ascertained by restriction digest analysis and double sequencing on ABI 310 prism sequencer. After transfection, pNL-AD87 produces a full-length infectious virus often used as reference for a B-Subtype, CCR5-tropic strain (Theodore et al., 1996).
(§6) Principle of Dual-Enhancement of Cell-Infection to Phenotype Resistance (deCIPhR™): deCIPhR test is a proprietary assay system developed by InPheno AG (FIG. 7):
(§7) Fully infectious HIV-1 is produced from a proviral reference DNA reflecting a reference HIV-1 virus. Recombinants carrying an exchanged specific-sequence (e.g. mutants resistant to existing HIV-1 inhibitors or sequences issued from clinical situations) can easily be engineered by PCR-based amplification/ligation (see paragraph 3). The unique test format allows 3 to 5 rounds of viral replication and permits a dynamic parallel read-out of viral fitness and resistance to the respective drugs under investigation. Colorimetric readout (405 nm) is translated in percent viral inhibition through normalization with positive and negative control wells included in each 96 well-plate. […]

[2] = test system: "D-I-A" mutant (pNL-Bal, gp41 G36D, V38A); conditions: for pIC50: "D-I-A" mutant, R5; for Rf (resistance factor: IC50 on mutant virus / IC50 on reference strain): "D-I-A" vs pNL-Bal; for Resistance factor (IC50 mut/IC50 wt) IC50 fold increase: Table II, "D-I-A" vs wild-type pNL-Bal
HIV = assay: profiling of anti-HIV activity, summary over lab strains; type: cell-based, HIV-1; conditions: summary of Example 2 results
pNL-Bal HIV-1 virus [3] = assay: microbe, parasite or virus in culture; conditions: Human immunodeficiency virus 1, BAL
Procedure: as §3, §4
(§8) The DNA sequence coding for Vpu, Tat, Rev, Env, and Nef from the CCR5-tropic clone BAL2 (HIVBAL2A, Genbank accession number #M68894) was introduced by PCR-cloning into the reference proviral strain pNL4-3 (Genbank accession number #AF324493), where it replaced the corresponding region. Presence of insert was ascertained by restriction digest analysis and double sequencing on ABI 310 prism sequencer. After transfection, pNL-BaL produces a full-length infectious virus often used as reference for a B-Subtype, CCR5-tropic strain (Donaldson et al., 1994).
as §6
(§9) Fully infectious HIV-1 is produced from a proviral reference DNA reflecting a reference HIV-1 virus. Recombinants carrying an exchanged specific-sequence (e.g. mutants resistant to existing HIV-1 inhibitors or sequences issued from clinical situations) can easily be engineered by PCR-based amplification/ligation (see paragraph 3). The unique test format allows 3 to 5 rounds of viral replication and permits a dynamic parallel read-out of viral fitness and resistance to the respective drugs under investigation. Colorimetric readout (405 nm) is translated in percent viral inhibition through normalization with positive and negative control wells included in each 96 well-plate.
(§10) Each mutated proviral DNA is transfected into a human epitheloid cell line using lipofectant agent (lipofectamine 2000, Invitrogen) following the manufacturer's instructions. Cell to cell spread and replication of recombinant viruses is allowed for but also restricted to a period of four days in the absence or presence of specific drugs by co-culture with a second cell line expressing both chemokine receptors CXCR4 and CCR5. Finally, culture supernatants are transferred to a third reporter cell line also expressing both kinds of co-receptors. The infection is incubated for another 48 hours period, after which cells are fixed (formaldehyde/glutaraldehyde) prior to incubation with a chromogenic substrate for beta-galactosidase, typically ortho-nitrophenyl-galactopyranoside.
(§11) A range of twelve concentrations of each compound was tested in triplicates in the deCIPhR format on each mutated provirus.
(§12) The two compounds under investigation were tested along with reference compounds T20 and EFV on three wild-type viruses (pNL4-3, green curves; pNL-Bal, blue curves and pNL-AD87, orange curves) using the deCIPhR cellular system (see paragraph 4.1).

pNL4-3 HIV-1 virus [4] = assay: microbe, parasite or virus in culture; conditions: Human immunodeficiency virus 1
Procedure: as §4
(§13) Fully infectious HIV-1 is produced from a proviral reference DNA reflecting a reference HIV-1 virus. […] The unique test format allows 3 to 5 rounds of viral replication and permits a dynamic parallel read-out of viral fitness and resistance to the respective drugs under investigation. Colorimetric readout (405 nm) is translated in percent viral inhibition through normalization with positive and negative control wells included in each 96 well-plate.
as §10, §11

[5] = test system: "G-I-A" mutant (pNL-Bal, gp41 V38A); conditions: for pIC50: "G-I-A" mutant, R5; for Rf (resistance factor: IC50 on mutant virus / IC50 on reference strain): "G-I-A" vs pNL-Bal; for Resistance factor (IC50 mut/IC50 wt) IC50 fold increase: Table II, "G-I-A" vs wild-type pNL-Bal
pNL-Bal HIV-1 virus [6] = conditions: for Rf (resistance factor): pNL-Bal reference strain, ratio to itself
Procedure: as §3, §4, §8, §6, §9, §10, §11, §12

[7] = test system: HIV-reporter cells (HeLaCCR5); assay: cytotoxicity microscopically observed in virus-to-cell infection format; type: cell-based; conditions: highest concentration
Procedure: (§1) Format for virus to cell infection: Briefly, the assay was performed in 6 well tissue culture plates and included 50'000 HIV-producing cells (HeLa) in a final volume of 2 mL DMEM medium (Gibco, Parsley, UK). After 2 days of incubation, […] of viral supernatant was added to 5'000 pre-incubated HIV-reporter cells (HeLaCCR5) in a final volume of […] of RPMI medium (Gibco, Parsley, UK) including […] of substances to be tested.
(§2) In this experiment only pNL4-3 reference HIV strain was used.

deCIPhR cellular system = conditions: at tested concentrations
Text: as §10, §12

pNL4-3 HIV-1 virus [8] = assay: microbe, parasite or virus in culture; type: cell-based; conditions: virus to cell infection, pNL4-3, X4 tropism; for pIC50: read-out: IC50
Procedure: Fully infectious HIV-1 is produced from proviral reference DNA reflecting a reference wild-type HIV-1 virus (pNL4-3, Genbank #AF003888).
as §1, §2
Graphs in FIG. 10 show the inhibition curves as percent of virus inhibition as a function of increasing concentrations of each compound. The table in FIG. 10 reports the calculated parameters of HIV inhibition (IC50, IC90 and Hill's coefficient).

pNL-AD87 HIV-1 virus [9] = conditions: cell to cell infection, pNL-AD87, R5 tropism
Procedure: as §3, §4, §5, §6, §7

pNL4-3 HIV-1 virus [10] = conditions: cell to cell infection, pNL4-3, X4 tropism
Procedure: as §4, §13, §10, §11

binding of gp120 to α4β7 = assay: gp120 binding to α4β7 in cell extracts (previous studies); parameters: species or system human; conditions: read-out: activity of inhibition of the binding of gp120 to α4β7
Text: FIG. 37: Activity of a panel of inhibitors in blocking the binding of gp120 to a4b7. (a) The left chart depicts data collected in example 3 using ELISA assay. (b) The right chart depicts data collected by screening cell extracts. Bold letters used for a compound denote active compounds. The remaining compounds are weak or non-inhibitors All assays were repeated six times (three times for each anti-gp120 mAb used in the case of the ELISA data) and an average was presented. All values were obtained within 5% deviation.
This method was advanced into an ELISA format and applied to screen the number of compounds provided within the research period.
Outcome: Repandusinic acid A inhibited the binding of gp120 to α4β7 with an activity of 1.2±0.1 μM using the described an ELISA assay.
The five-step assay developed was applied to screen the panel of compounds provided. […] The experiments were run in triplicate using two antibodies against gp120. The data was compiled and plotted (FIG. 37a) and compared against the results with less accuracy obtained in our prior studies (FIG. 37b). Only modest changes were observed between the in vitro studies conducted herein (FIG. 37a) and those conducted on cell lysates (FIG. 37b). Results obtained are described in detail in the figure legend to FIG. 37 herein above.

| Compound | pIC50 (pNL-AD87 HIV-1 virus [1]) | pIC50 [2] | Rf (resistance factor: IC50 on mutant virus / IC50 on reference strain) [2] | Resistance factor (IC50 mut/IC50 wt) IC50 fold increase [2] | pIC50 (pNL4-3 HIV-1 virus [4]) | pIC50 [5] | Rf (resistance factor: IC50 on mutant virus / IC50 on reference strain) [5] | Resistance factor (IC50 mut/IC50 wt) IC50 fold increase [5] | Rf (resistance factor) (pNL-Bal HIV-1 virus [6]) | further results |
| --- | --- | --- | --- | --- | --- | --- | --- | --- | --- | --- |
| O=C(CNC1CCCCC1)Nc1cccc(C(=O)Nc2cccc(C(F)(F)F)c2)c1 [T0520-5895] | 6.60 | < 4.52 | >40 | >40 | < 4.52 | 5.12 | 0.5 | 0.5 | 1 | anti-HIV activity (HIV): significant anti-HIV activity; pIC50 (pNL-Bal HIV-1 virus [3]; read-out: IC50, extrapolated value): 4.82; signs of cytotoxicity [7]: signs of cytotoxicity; signs of cytotoxicity (deCIPhR cellular system): without signs of cytotoxicity; IC50 (pNL4-3 HIV-1 virus [8]): inactive |
| O=C1Nc2ccc(Cl)cc2[C@@](C#CC2CC2)(C(F)(F)F)O1 [EFV, Efavirenz] | 9.00 | 8.52 | 0.6 | 0.5 | 8.05 | 8.77 | 0.3 | 0.3 | 1 | pIC50 (pNL-Bal HIV-1 virus [3]; read-out: IC50 (concentration inhibiting 50% of viral replication)): 8.30; pIC50 (pNL4-3 HIV-1 virus [8]; Human immunodeficiency virus 1): 8.70 |
| enfuvirtide | – | 5.64 | 227 | 227 | – | 6.90 | 12.7 | 13 | 1 | pIC50 (pNL-AD87 HIV-1 virus [9]): 7.20; pIC50 (pNL-Bal HIV-1 virus [6]; read-out: IC50 (concentration inhibiting 50% of viral replication), cell to cell infection, pNL-Bal, R5 tropism): 8.00; pIC50 (pNL4-3 HIV-1 virus [8]): 7.32; pIC50 (pNL4-3 HIV-1 virus [10]): 7.12 |
| O=C(O)C=C(C(=O)OC1C2COC(=O)c3cc(O)c(O)c(O)c3-c3c(cc(O)c(O)c3O)C(=O)OC1C(O)C(OC(=O)c1cc(O)c(O)c(O)c1)O2)C1c2c(cc(O)c(O)c2O)C(=O)OC1C(=O)O (stereo not shown) [Repandusinic acid A] | – | – | – | – | – | – | – | – | – | pIC50 (binding of gp120 to α4β7): 5.04 |
